Measured values: patent publication US7087623B2, “Thiazole and other heterocyclic ligands for mammalian dopamine, muscarinic and serotonin receptors and transporters, and methods of use thereof” (Sepracor Inc., priority 2001, dated 2006)
Like-named read-outs stand apart in the source and are kept apart here.

Tests used:
[1] = molecular target: T1, human serotonin 5-HT2A receptor (Homo sapiens, UniProt P28223); test: Radioligand binding assay, human 5-HT2A receptors ([3H]Ketanserin); conditions: human 5-HT2a, Example 16 table
T1 construct: expressed in transfected cells; host or cells: CHO-K1
T1 sequence (P28223 whole entry): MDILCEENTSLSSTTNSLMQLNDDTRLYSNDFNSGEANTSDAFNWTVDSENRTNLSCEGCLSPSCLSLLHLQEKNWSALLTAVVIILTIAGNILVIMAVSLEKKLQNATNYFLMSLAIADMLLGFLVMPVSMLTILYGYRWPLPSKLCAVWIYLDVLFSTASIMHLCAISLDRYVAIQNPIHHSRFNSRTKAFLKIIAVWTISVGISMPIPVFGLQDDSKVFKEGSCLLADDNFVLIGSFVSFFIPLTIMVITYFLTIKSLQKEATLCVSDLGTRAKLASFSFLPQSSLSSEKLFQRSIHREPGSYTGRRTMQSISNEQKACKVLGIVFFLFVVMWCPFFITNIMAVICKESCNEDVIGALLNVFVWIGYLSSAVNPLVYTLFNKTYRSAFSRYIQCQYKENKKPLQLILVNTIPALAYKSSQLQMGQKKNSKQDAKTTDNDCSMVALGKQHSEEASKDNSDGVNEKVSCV
Description: (§1) The human 5-HT2a and 5-HT2b screens were conducted according to Bonhaus, D. W. et al. Br. J. Pharmacol. 1995, 115, 622. The human 5-HT2c screen was conducted according to Wolf, W. A. et al. J. Neurochem. 1997, 69, 1449. The human 5-HT6 screen was conducted according to Monsma, F. J. et al. Mol. Pharmacol. 1993, 43, 320.
CHO-K1 cells stably transfected with a plasmid encoding the human serotonin 5-HT2A receptor were used to prepare membranes in modified Tris-HCl pH 7.7 buffer using standard techniques. […] Non-specific binding was estimated in the presence of 1 μM mianserin. […] See Bonhaus, D. W. et al. “The pharmacology and distribution of human 5-hydroxytryptamine2B (5-HT2B) receptor gene products: comparison with 5-HT2A and 5-HT2C receptors” Brit. J. Pharmacol. 115: 622–628, 1995; and Saucier, C and Albert, P. R. “Identification of an endogenous 5-hydroxytryptamine2A receptor in NIH-3T3 cells: agonist-induced down-regulation involves decreases in receptor RNA and number” J. Neurochem. 68: 1998–2011, 1997.
(§2) The human 5-HT2a and 5-HT2b screens were conducted according to Bonhaus, D. W. et al. Br. J. Pharmacol. 1995, 115, 622. The human […], W. A. et al. J. Neurochem. 1997, 69, 1449. The human 5-HT6 screen was conducted according to Monsama, F. J. et al. Mol. Pharmacol. 1993, 43, 320. The assay to human D3 receptors was conducted according to Sokoloff, P. et al. Nature 1990, 347;146. The human dopamine transporter assay was conducted according to Gu, H. et. al. J. Biol. Chem. 1994, 269 (10);7124; and Giros, B. et al. Trends. Pharmacol. Sci. 1993, 14: 43. The human muscarinic M1–M4 screens were conducted according to Buckley N. J. et al. Mol. Pharmacol. 1989, 35:469.

[2] = molecular target: T2, human serotonin 5-HT2B receptor (Homo sapiens, UniProt P41595); test: Radioligand binding assay, human 5-HT2B receptors ([3H]LSD)
T2 construct: expressed in transfected cells; host or cells: CHO-K1
T2 sequence (P41595 whole entry): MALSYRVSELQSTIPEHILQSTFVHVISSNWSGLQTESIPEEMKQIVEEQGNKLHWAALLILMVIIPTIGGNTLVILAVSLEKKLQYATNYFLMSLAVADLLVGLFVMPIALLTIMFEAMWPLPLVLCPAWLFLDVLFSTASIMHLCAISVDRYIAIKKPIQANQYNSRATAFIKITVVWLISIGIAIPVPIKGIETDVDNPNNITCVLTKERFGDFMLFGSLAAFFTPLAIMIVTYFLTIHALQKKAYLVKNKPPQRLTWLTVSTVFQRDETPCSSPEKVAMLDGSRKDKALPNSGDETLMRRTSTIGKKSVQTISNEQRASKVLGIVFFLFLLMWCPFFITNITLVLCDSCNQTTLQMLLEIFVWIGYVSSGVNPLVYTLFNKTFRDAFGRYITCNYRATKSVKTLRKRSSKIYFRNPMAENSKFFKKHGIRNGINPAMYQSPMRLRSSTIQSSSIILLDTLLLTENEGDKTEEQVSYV
Description: This assay measures binding of [^3H]LSD to human serotonin 5-HT2B receptors. CHO-K1 cells stably transfected with a plasmid encoding the human serotonin 5-HT2B receptor were used to prepare membranes in modified Tris-HCl pH 7.4 buffer using standard techniques. […] Non-specific binding was estimated in the presence of 10 μM serotonin. Membranes were filtered and washed 3 times and the filters were counted to determine [^3H]LSD specifically bound. See Bonhaus, D. W. et al. “The pharmacology and distribution of human 5-hydroxytryptamine2B (5-HT2B) receptor gene products: comparison with 5-HT2A and 5-HT2C receptors” Brit.
The human 5-HT2b screen was conducted according to Wolf, W. A. et al. J. Neurochem.

[3] = molecular target: T3, human serotonin 5-HT2C receptor (Homo sapiens, UniProt P28335); test: Radioligand binding assay, human 5-HT2C receptors ([3H]Mesulergine); conditions: human 5-HT2c, Example 16 table
T3 construct: expressed in transfected cells; host or cells: CHO-K1
T3 sequence (P28335 33-458): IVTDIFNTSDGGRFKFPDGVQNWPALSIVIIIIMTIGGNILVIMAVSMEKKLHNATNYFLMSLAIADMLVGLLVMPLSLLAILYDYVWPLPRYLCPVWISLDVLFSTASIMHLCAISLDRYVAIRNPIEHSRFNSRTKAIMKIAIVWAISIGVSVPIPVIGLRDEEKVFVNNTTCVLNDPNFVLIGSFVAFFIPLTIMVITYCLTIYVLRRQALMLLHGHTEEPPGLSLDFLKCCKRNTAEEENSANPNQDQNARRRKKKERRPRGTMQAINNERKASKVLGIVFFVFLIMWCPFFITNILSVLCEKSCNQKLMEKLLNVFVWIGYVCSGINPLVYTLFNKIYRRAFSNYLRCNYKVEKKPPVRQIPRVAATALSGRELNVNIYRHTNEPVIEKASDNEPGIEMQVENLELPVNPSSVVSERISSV
Description: as §1
CHO-K1 cells stably transfected with a plasmid encoding the human serotonin 5-HT2C receptor were used to prepare membranes in modified Tris-HCl pH 7.7 buffer using standard techniques. […] Non-specific binding was estimated in the presence of 1 μM mianserin. […] See Wolf, W. A. and Schutz, J. S. “The serotonin 5-HT2C receptor is a prominent serotonin receptor in basal ganglia: evidence from functional studies on serotonin-mediated phosphoinositide hydrolysis” J. Neurochem. 69: 1449–1458, 1997.
as §2

[4] = molecular target: T4, human serotonin 5-HT6 receptor (Homo sapiens, UniProt P50406); test: Radioligand binding assay, human 5-HT6 receptors ([3H]LSD)
T4 construct: expressed in transfected cells; host or cells: HeLa/E6-7
T4 sequence (P50406 whole entry): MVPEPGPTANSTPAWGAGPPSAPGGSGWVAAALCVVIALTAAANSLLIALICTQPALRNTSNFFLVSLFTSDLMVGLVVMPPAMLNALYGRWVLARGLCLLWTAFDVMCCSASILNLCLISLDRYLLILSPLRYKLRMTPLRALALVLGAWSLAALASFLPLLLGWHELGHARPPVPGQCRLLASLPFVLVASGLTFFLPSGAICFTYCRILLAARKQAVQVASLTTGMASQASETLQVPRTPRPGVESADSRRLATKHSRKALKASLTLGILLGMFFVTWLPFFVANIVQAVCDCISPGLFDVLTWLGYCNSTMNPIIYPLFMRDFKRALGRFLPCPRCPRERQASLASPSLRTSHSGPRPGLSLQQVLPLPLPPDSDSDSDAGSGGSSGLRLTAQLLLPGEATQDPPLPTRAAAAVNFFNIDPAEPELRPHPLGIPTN
Description: as §1
This assay measures binding of [^3H]LSD (lysergic acid diethylamide) to human serotonin 5-HT6 receptors. HeLa/E6–7 cells stably transfected with a plasmid encoding the human serotonin 5-HT6 receptor were used to prepare membranes in modified Tris-HCl pH 7.4 buffer using standard techniques. A 30 μg aliquot of membrane was incubated with 1.5 nM [^3H]LSD for 120 minutes at 37° C. Non-specific binding was estimated in the presence of 5 μM 5-HT. Membranes were filtered and washed 3 times and the filters were counted to determine [^3H]LSD specifically bound. See Monsma, Jr., F. J. et al. “Cloning and expression of a novel serotonin receptor with high affinity for tricyclic psychotropic drugs” Mol. Pharmacol. 43: 320–327, 1993.
as §2

[5] = molecular target: T5, human dopamine D3 receptor (Homo sapiens, UniProt P35462); test: Radioligand binding assay, human dopamine D3 receptors ([3H]Spiperone)
T5 construct: expressed in transfected cells; host or cells: CHO
T5 sequence (P35462 whole entry): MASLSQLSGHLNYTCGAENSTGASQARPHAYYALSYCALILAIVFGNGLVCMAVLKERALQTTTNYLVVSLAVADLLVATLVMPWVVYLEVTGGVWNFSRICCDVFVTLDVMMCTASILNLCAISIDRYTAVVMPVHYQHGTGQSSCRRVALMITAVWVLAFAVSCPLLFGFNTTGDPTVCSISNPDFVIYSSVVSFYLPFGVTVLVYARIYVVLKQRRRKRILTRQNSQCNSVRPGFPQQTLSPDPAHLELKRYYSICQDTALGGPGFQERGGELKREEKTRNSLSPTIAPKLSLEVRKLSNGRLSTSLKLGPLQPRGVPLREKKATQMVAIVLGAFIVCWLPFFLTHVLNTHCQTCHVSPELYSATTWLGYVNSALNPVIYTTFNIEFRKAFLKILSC
Description: The assay for binding to human D3 receptors was conducted according to Sokoloff, P. et al. Nature 1990, 347, 146.
CHO cells stably transfected with a plasmid encoding the human dopamine D3 receptor were used to prepare membranes in modified Tris-HCl pH 7.4 buffer using standard techniques. […] Non-specific binding was estimated in the presence of 25 μM S-(−)-sulpiride. […] See Sokoloff, P. et al. “Molecular cloning and characterization of a novel dopamine receptor (D3) as a target for neuroleptics” Nature 347: 146–151, 1990.
as §2

[6] = molecular target: T6, human dopamine transporter (Homo sapiens, UniProt Q01959); test: Binding to human dopamine transporter ([125I]RTI-55)
T6 construct: expressed in transfected cells; host or cells: CHO-K1
T6 sequence (Q01959 whole entry): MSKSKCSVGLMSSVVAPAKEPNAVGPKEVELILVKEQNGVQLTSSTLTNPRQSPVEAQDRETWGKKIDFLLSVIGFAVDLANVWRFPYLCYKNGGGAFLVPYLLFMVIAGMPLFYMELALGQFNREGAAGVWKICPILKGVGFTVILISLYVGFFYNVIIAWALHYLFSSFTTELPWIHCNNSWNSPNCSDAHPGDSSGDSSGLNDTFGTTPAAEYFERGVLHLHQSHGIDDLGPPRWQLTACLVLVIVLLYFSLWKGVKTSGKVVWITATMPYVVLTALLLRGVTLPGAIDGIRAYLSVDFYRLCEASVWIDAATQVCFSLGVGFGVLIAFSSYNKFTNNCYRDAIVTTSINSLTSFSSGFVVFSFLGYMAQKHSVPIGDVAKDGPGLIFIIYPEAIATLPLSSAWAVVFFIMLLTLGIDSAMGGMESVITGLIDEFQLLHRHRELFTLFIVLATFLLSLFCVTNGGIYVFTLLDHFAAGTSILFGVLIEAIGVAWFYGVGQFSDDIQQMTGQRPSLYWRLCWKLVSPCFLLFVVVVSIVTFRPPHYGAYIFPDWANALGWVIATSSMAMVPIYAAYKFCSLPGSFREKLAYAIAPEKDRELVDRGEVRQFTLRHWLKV
Description: CHO-K1 cell membranes stably transfected with a plasmid encoding the human dopamine transporter were prepared in modified Tris-HCl pH 7.4 buffer using standard techniques. […] Non-specific binding was estimated in the presence of 10 μM nomifensine. […] Trends. […]

[7] = human 5-HT2b, Example 16 table, read-out: IC50 (nM) 5-HT2b
[8] = human 5-HT6, Example 16 table, read-out: IC50 (nM) 5-HT6
[9] = Example 20 table, read-out: IC50 (nM) Against Human D3 Receptors
[10] = human, Example 101 table, read-out: IC50 (nM) DAT

Row | SMILES | IC50 ([1]; read-out: IC50 (nM) 5-HT2a) | IC50 [2, 7] | IC50 ([3]; read-out: IC50 (nM) 5-HT2c) | IC50 [4, 8] | IC50 [5, 9] | IC50 [6, 10] | IC50 ([1]; IC50 (nM) 5-HT2a) | IC50 [2] | IC50 ([3]; IC50 (nM) 5-HT2c) | IC50 ([4]; IC50 (nM) 5-HT6, human 5-HT6, Example 16 table) | IC50 ([5]; IC50 (nM) Against Human D3 Receptors, Example 20 table) | IC50 [6] | IC50 ([4]; human, Example 100 table, read-out: IC50 (nM) 5-HT6) | IC50 ([5]; human, Example 100 table, read-out: IC50 (nM) D3) | IC50 ([6]; human, Example 100 table, read-out: IC50 (nM) DAT)
1 | CN1CCN(c2nc(C3(c4ccc(Cl)cc4)CCC3)no2)CC1 [Compound 28, 1-{3-[1-(4-chlorophenyl)cyclobutyl]-[1,2,4]oxadiazol-5-yl}-4-methylpiperazine] | > 1000 nM | > 1000 nM | > 1000 nM | > 1000 nM | > 1000 nM | > 1000 nM |  |  |  |  |  |  |  |  | 
2 | CN1CCN(c2nc(C3(c4ccc(Cl)cc4)CCOCC3)cs2)CC1 [Compound 29, 1-{4-[4-(4-chlorophenyl)tetrahydropyran-4-yl]-thiazol-2-yl}-4-methylpiperazine] |  |  |  |  |  |  | > 1000 nM | > 1000 nM | < 1000 nM | < 100 nM | < 1000 nM | < 1000 nM |  |  | 
3 | CN1CCN(c2nc(CCc3ccc(Cl)cc3)cs2)CC1 [Compound 32] | < 100 nM | < 1000 nM | < 100 nM | > 1000 nM | > 1000 nM | > 1000 nM |  |  |  |  |  |  |  |  | 
4 | CN1CCC(c2nc(C3(c4ccc(Cl)cc4)CCCCC3)cs2)CC1 [Compound 35] | < 1000 nM | < 1000 nM | < 1000 nM | < 1000 nM | < 100 nM | < 100 nM |  |  |  |  |  |  |  |  | 
5 | COc1ccc(C2(c3csc(N4CCN(C)CC4)n3)CCOCC2)cc1OC [Compound 74] | > 1000 nM | > 1000 nM | > 1000 nM | > 1000 nM | > 1000 nM | > 1000 nM |  |  |  |  |  |  |  |  | 
6 | CN1CCN(c2nc(C3(c4ccc(Cl)cc4)CCCC3)cs2)CC1 [Compound 85] | > 1000 nM | < 1000 nM | < 1000 nM | < 100 nM | < 1000 nM | < 100 nM |  |  |  |  |  |  |  |  | 
7 | CNC1CCN(c2nc(C3(c4ccccc4F)CCCCC3)cs2)C1 (stereo not drawn) [Compound 134, (1-{4-[1-(2-fluorophenyl)-cyclohexyl]-thiazol-2-yl}-pyrrolidin-3-yl)-methyl-amine] |  |  |  |  |  |  |  |  |  |  |  |  | < 1000 nM | > 1000 nM | > 1000 nM
